According to ChEMBL document CHEMBL5120763 (J Nat Prod, 2022):
The source made the active and inactive calls. No cut-off for these calls is given here.

Legend:
NCI-H1299 [1] = assay: Induction of apoptosis in human NCI-H1299 cells at 0.25 to 1 uM incubated for 24 hrs by FITC annexin V/PI double-staining based flow cytometry; assay type: functional, cell-based; details: dose 0.25-1 µM, DDE = dose-dependent effect
PC-9 [2] = assay: Induction of apoptosis in human PC-9 cells at 0.25 to 1 uM incubated for 48 hrs by FITC annexin V/PI double-staining based flow cytometry; assay type: functional, cell-based; details: dose 0.25-1 µM, DDE = dose-dependent effect
NCI-H1299 [3] = assay: Induction of apoptosis in human NCI-H1299 cells assessed as increase in cleaved PARP1 levels at 0.25 to 1 uM incubated for 24 hrs by Western blot analysis; assay type: functional, cell-based; details: dose 0.25-1 µM
NCI-H1299 [4] = assay: Induction of apoptosis in human NCI-H1299 cells assessed as reduction in Bcl2 levels at 0.25 to 1 uM incubated for 24 hrs by Western blot analysis; assay type: functional, cell-based; details: dose 0.25-1 µM
PC-9 [5] = assay: Induction of apoptosis in human PC-9 cells assessed as increase in cleaved PARP1 levels at 0.25 to 1 uM incubated for 48 hrs by Western blot analysis; assay type: functional, cell-based; details: dose 0.25-1 µM
PC-9 [6] = assay: Induction of apoptosis in human PC-9 cells assessed as reduction in Bcl2 levels at 0.25 to 1 uM incubated for 48 hrs by Western blot analysis; assay type: functional, cell-based; details: dose 0.25-1 µM
PC-9 [7] = assay: Induction of apoptosis in human PC-9 cells assessed as late apoptosis cells level at 1 uM incubated for 48 hrs by FITC annexin V/PI double-staining based flow cytometry (reference value: 2.07%); assay type: functional
PC-9 [8] = assay: Induction of apoptosis in human PC-9 cells assessed as late apoptosis cells level at 0.25 uM incubated for 48 hrs by FITC annexin V/PI double-staining based flow cytometry (reference value: 2.07%); assay type: functional
PC-9 [9] = assay: Induction of apoptosis in human PC-9 cells assessed as late apoptosis cells level at 0.5 uM incubated for 48 hrs by FITC annexin V/PI double-staining based flow cytometry (reference value: 2.07%); assay type: functional
NCI-H1299 [10] = assay: Induction of apoptosis in human NCI-H1299 cells assessed as late apoptosis cells level at 0.25 uM incubated for 24 hrs by FITC annexin V/PI double-staining based flow cytometry (reference value: 4.27%); assay type: functional
NCI-H1299 [11] = assay: Induction of apoptosis in human NCI-H1299 cells assessed as late apoptosis cells level at 0.5 uM incubated for 24 hrs by FITC annexin V/PI double-staining based flow cytometry (reference value: 4.27%); assay type: functional
NCI-H1299 [12] = assay: Induction of apoptosis in human NCI-H1299 cells assessed as late apoptosis cells level at 1 uM incubated for 24 hrs by FITC annexin V/PI double-staining based flow cytometry (reference value: 4.27%); assay type: functional
A549 [13] = assay: Antitumor activity against human A549 cells xenografted in BALB/c nude mouse assessed as reduction in tumor size at 2 mg/kg, ip dosed every 2 days for total of 18 days; assay type: functional, organism-based; details: time 18.0 day
[14] = Toxicity in BALB/c nude mouse xenografted with human A549 cells assessed as induction of body weight loss at 1 to 2 mg/kg, ip dosed every 2 days for total of 18 days; assay type: organism-based; details: in vivo, 432 h, dose 1-2 mg/kg, time 18 day
[15] = Toxicity in BALB/c nude mouse xenografted with human A549 cells assessed as toxic effect on heart at 1 to 2 mg/kg, ip dosed every 2 days for total of 18 days by H and E staining; assay type: organism-based; details: in vivo, dose 1-2 mg/kg
[16] = Toxicity in BALB/c nude mouse xenografted with human A549 cells assessed as toxic effect on liver at 1 to 2 mg/kg, ip dosed every 2 days for total of 18 days by H and E staining; assay type: organism-based; details: in vivo, 432 h, dose 1-2 mg/kg, time 18 day
[17] = Toxicity in BALB/c nude mouse xenografted with human A549 cells assessed as toxic effect on lung at 1 to 2 mg/kg, ip dosed every 2 days for total of 18 days by H and E staining; assay type: organism-based; details: in vivo, 432 h, dose 1-2 mg/kg, time 18 day
[18] = Toxicity in BALB/c nude mouse xenografted with human A549 cells assessed as toxic effect on kidney at 1 to 2 mg/kg, ip dosed every 2 days for total of 18 days by H and E staining; assay type: organism-based; details: in vivo, 432 h, dose 1-2 mg/kg, time 18 day
A549 [19] = assay: Increase in cleaved PARP1 protein expression levels in tumor of BALB/c nude mouse xenografted with human A549 cells at 1 to 2 mg/kg, ip dosed every 2 days for total of 18 days by Western blot analysis; assay type: functional, organism-based; details: dose 1-2 mg/kg, time 18.0 day

C[C@]12CC[C@H](O)C[C@@]1(O)CC[C@@H]1[C@@H]2CC[C@]2(C)[C@@H](c3ccc(=O)oc3)CC[C@]12O [TELOCINOBUFAGIN]
Activity (NCI-H1299 [1]): Dde | Activity (PC-9 [2]): Dde | Activity (NCI-H1299 [3]): Active | Activity (NCI-H1299 [4]): Active | Activity (PC-9 [5]): Active | Activity (PC-9 [6]): Active | Activity (PC-9 [7]): 22.7% | Activity (PC-9 [8]): 6.66% | Activity (PC-9 [9]): 11.37% | Activity (NCI-H1299 [10]): 16.98% | Activity (NCI-H1299 [11]): 25.06% | Activity (NCI-H1299 [12]): 38.41% | Activity (A549 [13]): Active | Activity [14]: Non-Toxic | Activity [15]: Non-Toxic | Activity [16]: Non-Toxic | Activity [17]: Non-Toxic | Activity [18]: Non-Toxic | Activity (A549 [19]): Active
